Laboratory results reported in PMC10505172, “Discovery and pharmacophoric characterization of chemokine network inhibitors using phage-display, saturation mutagenesis and computational modelling” (Nature Communications, 2023).
Where two headings read alike, the source gives them in different places. Ends that are not written are not given here.

Columns and labels:
CCL8 [1] = biological target: T1, CCL8 (Homo sapiens, UniProt P80075); assay: CCL8-induced THP1 cell migration (chemotaxis); format: cell-based; details: for effect on chemokine-induced cell migration compared with scrambled control HD2SCR: peptides 10 μM, chemokine at EC80, THP1 cells, n = 3 biological replicates, Dunnett's test
T1 construct: purchased Peprotech 300-15
T1 sequence (P80075 24-99): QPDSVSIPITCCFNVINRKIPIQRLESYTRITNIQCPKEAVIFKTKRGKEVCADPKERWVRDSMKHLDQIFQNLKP
Procedure: (§1) For THP1 migration assays, 300000 cells/well were added to the top chamber of a 5-µm 96-well Transwell insert (3387, Corning) in 50 µL of cell migration media (RPMI-1640 (R0883, Sigma), 0.5% FBS (F9665, Sigma), 4 mM L-Glutamine (G7513, Sigma), 0.05% DMSO (D4540, Sigma)). The bottom chamber contained 150 µL of migration media with chemokine and peptide added. Cells were migrated at 37 °C in 5% CO2 for 4 h.
Following the migration assay the migration plate was shaken at 850 RPM for 10 min, and media from bottom plate transferred to a round-bottomed 96 well plate (353910, Falcon). Cell counts were determined using an Atune NxT Flow Cytometer Plate Reader with Cytkick autosampler (ThermoFisher), based on cell size parameters FSC-H/SSC-H, and a previously defined gate setting for each cell type (Supplementary Fig. 11). All experiments were performed as three technical and three biological replicates. Statistical significances between control and experimental groups was evaluated using Dunnett’s test[73]. IC50 experiments were performed at the EC80 dose of chemokine. EC80 was calculated by fitting a chemokine dose-response curve with a 3-parameter log-logistic model (fixing the top to 100%) using the function “drm” in R-package drc[74]. IC50 was calculated by fitting an inhibitor response curve with a 4-parameter log-logistic model using the function “drm” in R-package drc[74]. All IC50 values reported had p-value < 0.05.

CCL5 [2] = biological target: T2, CCL5 (Homo sapiens, UniProt P13501); assay: CCL5-induced THP1 cell migration (chemotaxis); format: cell-based
T2 construct: purchased Peprotech 300-06
T2 sequence (P13501 24-91): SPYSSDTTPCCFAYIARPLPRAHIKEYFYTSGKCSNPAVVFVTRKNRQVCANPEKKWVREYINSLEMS
Procedure: as §1
(§2) Following the migration assay the migration plate was shaken at 850 RPM for 10 min, and media from bottom plate transferred to a round-bottomed 96 well plate (353910, Falcon). Cell counts were determined using an Atune NxT Flow Cytometer Plate Reader with Cytkick autosampler (ThermoFisher), based on cell size parameters FSC-H/SSC-H, and a previously defined gate setting for each cell type (Supplementary Fig. 11). All experiments were performed as three technical and three biological replicates. Statistical significances between control and experimental groups was evaluated using Dunnett’s test[73]. IC50 experiments were performed at the EC80 dose of chemokine. EC80 was calculated by fitting a chemokine dose-response curve with a 3-parameter log-logistic model (fixing the top to 100%) using the function “drm” in R-package drc[74]. IC50 was calculated by fitting an inhibitor response curve with a 4-parameter log-logistic model using the function “drm” in R-package drc[74]. […]

CCL7 [3] = biological target: T3, CCL7 (Homo sapiens, UniProt P80098); assay: CCL7-induced THP1 cell migration (chemotaxis); format: cell-based
T3 construct: purchased Peprotech 300-17
Procedure: as §1, §2

CXCL10 [4] = biological target: T4, CXCL10 (Homo sapiens, UniProt P02778); assay: CXCL10-induced activated T cell (ATC) migration (chemotaxis); format: cell-based
T4 construct: purchased Peprotech 300-12
Procedure: For activated-T cell migration assays, 100000 cells/well were added to the top chamber of a 3-µm Transwell insert (3385, Corning) in 50 µL of migration media (HBSS (14025-092, Life Technologies), 0.1% protease free bovine serum albumin (A7030, Sigma), 0.05% DMSO (D4540, Sigma)). The bottom chamber contained 150 µL of migration media with chemokine and peptide added. Cells were migrated at 37 °C in 5% CO2 for 2 h.
as §2

CXCL6 = biological target: T5, CXCL6 (Homo sapiens, UniProt P80162); assay: CXCL6-induced Jurkat CXCR1 (J:CXCR1) migration (chemotaxis); format: cell-based
T5 construct: purchased Peprotech 300-41
Procedure: as §1
J:CXCR1 migration assays were performed exactly as for THP1 assays except that a 3-µm Transwell insert (3385, Corning) was used.
Following the migration assay the migration plate was shaken at 850 RPM for 10 min, and media from bottom plate transferred to a round-bottomed 96 well plate (353910, Falcon). Cell counts were determined using an Atune NxT Flow Cytometer Plate Reader with Cytkick autosampler (ThermoFisher), based on cell size parameters FSC-H/SSC-H, and a previously defined gate setting for each cell type (Supplementary Fig. 11). […] Statistical significances between control and experimental groups was evaluated using Dunnett’s test[73]. […] EC80 was calculated by fitting a chemokine dose-response curve with a 3-parameter log-logistic model (fixing the top to 100%) using the function “drm” in R-package drc[74]. IC50 was calculated by fitting an inhibitor response curve with a 4-parameter log-logistic model using the function “drm” in R-package drc[74]. […]

[5] = system: 25 biotinylated chemokines; assay: Phage-display library selection with deep sequencing; format: binding, human; details: multivalent p8 phage display, three selection rounds, 25 chemokine baits, enrichment vs input library
Procedure: Phage display screening was performed using a protocol as described[71] with certain modifications. Experiments were performed in 96-well plates (Greiner Bio-One, 655180). Briefly, biotinylated chemokines (1 μg, Almac or ProteinFoundry, Supplementary Table 1) were immobilised on 5 μl streptavidin-coated magnetic beads (Dynabeads™ M-280 Streptavidin, Invitrogen, 11205D) and incubated overnight at 4 °C. […]
Inserts from the input library and from the final phage population following selection were amplified by PCR using primers: 5′- […] and 5′-[…], (Life Technologies). The PCR products were cleaned up using Monarch® PCR & DNA Cleanup Kit (5 μg) (T1030, NEB), 260/280 ratio determined by Nanodrop, quantified using a Qubit dsDNA Quantitation, High Sensitivity Kit (Q32851, Thermo Scientific) and subsequently sequenced at Azenta/GeneWiz using the AmpliconEZ protocol.
Paired end read Fastq files were joined by the read id. […] Hexadecapeptide enrichment (E) following selection was calculated as ratio of output peptide frequency to input peptide frequency and expressed as log2E. […]

CCL8 [6] = biological target: T1, CCL8; assay: Biolayer interferometry, His-SUMO peptide fusion binding to chemokine
From the text: We next evaluated the ability of the exemplar peptide HD2 to bind a panel of chemokines (Supplementary Table 3) using biolayer interferometry (BLI). We generated HD2 and a scrambled control (HD2SCR) as HIS:SUMO fusion proteins in E.coli. This approach results in soluble proteins that can be immobilised on to BLI sensors through the N-terminal HIS tag. […] The binding of HD2 to these chemokines was characterised at different chemokine doses to evaluate binding affinity (KD). […] As chemokines are known to oligomerize in solution and also upon glycosaminoglycan binding, the most parsimonious explanation for this binding profile is chemokine oligomerization at the BLI sensor. […] The most likely explanation is that multivalent phage peptide-display allows identification of lower affinity interactions in comparison to BLI[40].
The binding of His-SUMO tagged peptide fusions to various chemokines (Supplementary Table 3) was investigated by biolayer interferometry (BLI) using Ni-NTA biosensors (18-5101, ForteBio). All BLI data were obtained at 25 °C using a ForteBio-Sartorius Octet RED 384 instrument and Octet 384-well tilted bottom microplate (18-5080, Sartorius). […] Kinetic data was analysed using buffer subtracted wavelength shift and a 1:1 binding model.

CCL11 = assay: Biolayer interferometry cross-binding screen; set-up: species or system human; details: 1 μM chemokine, fusion 1 mg/mL immobilised; specific if Rmax exceeded 3 times Rmax of SUMO:HD2SCR; two independent experiments
Procedure: (§3) The binding of His-SUMO tagged peptide fusions to various chemokines (Supplementary Table 3) was investigated by biolayer interferometry (BLI) using Ni-NTA biosensors (18-5101, ForteBio). All BLI data were obtained at 25 °C using a ForteBio-Sartorius Octet RED 384 instrument and Octet 384-well tilted bottom microplate (18-5080, Sartorius). The biosensors were preincubated overnight at room temperature in BLI buffer (PBS, 500 mM NaCl, 0.01% BSA (A7638, Sigma) + 0.002% Tween (P2287, Sigma)). His-SUMO tagged peptide fusions at 1 mg/mL (for cross-binding screen assay) and at 0.25 mg/mL (for kinetic assays) were immobilised on the Ni-NTA biosensors for 500 s using the BLI buffer. The HIS:SUMO fusion-loaded biosensors were then washed in the BLI buffer to allow signal stabilisation. To study the association with the analyte (chemokines), the biosensors were then dipped in chemokine solutions of various concentrations (1 μM for cross-binding screen assays, a range of 25–750 nM for kinetic assays) made in the BLI buffer, for either 300 s for cross-binding screen assays, or 600 s for kinetic assays. This was followed by the dissociation step, where the biosensors were incubated in BLI buffer for 300 s for screening assays and 600 s for kinetic assays. For chemokine cross-binding screens, wavelength shift was normalised by subtracting the signal from buffer control, and normalising the highest Rmax (i.e., with CCL8 and HD2) obtained in the experiment to 1. Kinetic data was analysed using buffer subtracted wavelength shift and a 1:1 binding model. […]
(§4) independent experiments. Plots display normalised wavelength shift (y axis; nm) versus time (x-axis; seconds). Vertical dotted line indicates the onset of dissociation. Cross-binding experiments (at 1 uM chemokine concentration) were performed with a panel of chemokines (see Supplementary information
(§5) Table 3). […] Chemokine names are indicated. […]
(§6) specific binding in two independent experiments are shown. […]

CCL1 = assay: Biolayer interferometry cross-binding screen; set-up: species or system human; details: 1 μM chemokine, fusion 1 mg/mL immobilised; specific if Rmax exceeded 3 times Rmax of SUMO:HD2SCR; two independent experiments
Procedure: as §3, §4, §5, §6

CXCL13 = assay: Biolayer interferometry cross-binding screen; set-up: species or system human; details: 1 μM chemokine, fusion 1 mg/mL immobilised; specific if Rmax exceeded 3 times Rmax of SUMO:HD2SCR; two independent experiments
Procedure: as §3, §4, §5, §6

CCL5 [7] = biological target: T2, CCL5; assay: Biolayer interferometry cross-binding screen; details: 1 μM chemokine, fusion 1 mg/mL immobilised; specific if Rmax exceeded 3 times Rmax of SUMO:HD2SCR; two independent experiments
Procedure: as §3, §4, §5, §6

CCL7 [8] = biological target: T3, CCL7; assay: Biolayer interferometry cross-binding screen; details: 1 μM chemokine, fusion 1 mg/mL immobilised; specific if Rmax exceeded 3 times Rmax of SUMO:HD2SCR; two independent experiments
Procedure: as §3, §4, §5, §6

CXCL10 [9] = biological target: T4, CXCL10; assay: Biolayer interferometry cross-binding screen; details: 1 μM chemokine, fusion 1 mg/mL immobilised; specific if Rmax exceeded 3 times Rmax of SUMO:HD2SCR; two independent experiments
Procedure: as §3, §4, §5, §6

T3 sequence (P80098 24-99): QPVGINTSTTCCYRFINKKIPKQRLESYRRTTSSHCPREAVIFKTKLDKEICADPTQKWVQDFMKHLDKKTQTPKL
T5 sequence (P80162 38-114): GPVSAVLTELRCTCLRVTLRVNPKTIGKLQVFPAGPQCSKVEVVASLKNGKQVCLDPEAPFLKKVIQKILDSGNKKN

Substance: DEDYEDFFKPVTCYFA [HD540, hexadecapeptide from evasin EV672_RHIPC]
- effect on chemokine-induced cell migration compared with scrambled control HD2SCR (CCL8 [1]): inhibition

Substance: EDEDYEDFFKPVTCYF [HD845, hexadecapeptide from evasin EV672_RHIPC, previously described as BK1.5]
- effect on chemokine-induced cell migration compared with scrambled control HD2SCR (CCL8 [1]): inhibition

Substance: EEDDYTAYAPLTCYFT-NH2 [HD2]
- IC50 (CCL8 [1]): 19 nM
- IC50 (CCL5 [2]): 790 nM
- IC50 (CCL7 [3]): 5700 nM
- IC50 (CXCL10 [4]): 2500 nM
- IC50 (CXCL6): 7100 nM
- IC50 (CXCL6; IC50, median, median of biological replicates (n = 3), Fig. 6k, J:CXCR1 cells, chemokine at EC80): 14000 nM

Substance: EEEDDYTAYAPLTCYF [HD7, hexadecapeptide from evasin EVA4_RHISA]
- number of chemokines bound with log2E > 5 [5]: over 15

Substance: sHD2: HD2 generated as HIS:SUMO fusion protein in E.coli for BLI (EEDDYTAYAPLTCYFT; also: HIS:SUMO fusion protein, side not given here)
- specific binding in BLI cross-binding screen (CCL8 [6]; 1 μM chemokine, fusion 1 mg/mL immobilised, specific if Rmax exceeded 3 times Rmax of SUMO:HD2SCR, two independent experiments): specifically and reproducibly bind
- Kd (CCL8 [6]; Expt ID E12, N = 5 dose responses with good fits, BLI kinetic assay, 1:1 binding model, 25 °C): 142 nM
- specific binding in BLI cross-binding screen (CCL11): specifically and reproducibly bind
- specific binding in BLI cross-binding screen (CCL1): specifically and reproducibly bind
- specific binding in BLI cross-binding screen (CXCL13): specifically and reproducibly bind
- specific binding in BLI cross-binding screen (CCL5 [7]): specifically and reproducibly bind
- specific binding in BLI cross-binding screen (CCL7 [8]): specifically and reproducibly bind
- specific binding in BLI cross-binding screen (CXCL10 [9]): specifically and reproducibly bind
